Data: patent publication US20240010684A1, “MASP INHIBITORY COMPOUNDS AND USES THEREOF” (BAYER AKTIENGESELLSCHAFT, priority 2020, published 2024)
pIC50: −log10 of the molar value. Where two headings read alike, the source gives them in different places. Where a SMILES comes first, the peptide text is derived from it. Bridges are numbered along the chain shown (N, C = ends). [ ]: non-standard residue; d: D form. Oic = O=C(O)[C@@H]1C[C@@H]2CCCC[C@@H]2N1; tBuAla = CC(C)(C)C[C@H](N)C(=O)O; Pen = CC(C)(S)[C@H](N)C(=O)O; Ahx = NCCCCCC(=O)O

Key:
human MASP1 = human MASP1 (Homo sapiens (Human), UniProt P48740); experiment: Biochemical human MASP1 assay (FRET substrate)
human MASP1, sequence (P48740 other isoform, or with tags, fused parts or gaps): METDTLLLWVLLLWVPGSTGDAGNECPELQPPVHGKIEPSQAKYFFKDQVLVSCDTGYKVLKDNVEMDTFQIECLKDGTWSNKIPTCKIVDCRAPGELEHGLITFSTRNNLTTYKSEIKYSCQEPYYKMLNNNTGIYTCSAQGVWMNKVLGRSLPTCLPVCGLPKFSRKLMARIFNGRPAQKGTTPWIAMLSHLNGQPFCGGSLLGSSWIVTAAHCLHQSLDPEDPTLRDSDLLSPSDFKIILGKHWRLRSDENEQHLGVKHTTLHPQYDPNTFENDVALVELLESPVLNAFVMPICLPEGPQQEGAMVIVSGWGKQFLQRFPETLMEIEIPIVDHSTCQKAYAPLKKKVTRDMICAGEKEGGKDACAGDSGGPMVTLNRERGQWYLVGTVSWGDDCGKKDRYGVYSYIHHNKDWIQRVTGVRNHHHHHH
Method in brief: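 Recombinant human MASP1 (aa 297-699, C-terminal His tag, HEK293-expressed, Ni-NTA purified) diluted to 20 nM in 50 mM HEPES pH 8,0, 100 mM NaCl, 0,01% CHAPS, 0.5 mM glutathione, preincubated with compound in DMSO; reaction started with 20 μM ABZ/Dnp FRET substrate solution. Fluorescence (ex 320/em 420 nm) after 60-120 min at 32 C; IC50 from % inhibition.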

human MASP2 = human MASP2 (Homo sapiens (Human), UniProt O00187); experiment: Biochemical human MASP2 assay (FRET substrate)
human MASP2, sequence (O00187 other isoform, or with tags, fused parts or gaps): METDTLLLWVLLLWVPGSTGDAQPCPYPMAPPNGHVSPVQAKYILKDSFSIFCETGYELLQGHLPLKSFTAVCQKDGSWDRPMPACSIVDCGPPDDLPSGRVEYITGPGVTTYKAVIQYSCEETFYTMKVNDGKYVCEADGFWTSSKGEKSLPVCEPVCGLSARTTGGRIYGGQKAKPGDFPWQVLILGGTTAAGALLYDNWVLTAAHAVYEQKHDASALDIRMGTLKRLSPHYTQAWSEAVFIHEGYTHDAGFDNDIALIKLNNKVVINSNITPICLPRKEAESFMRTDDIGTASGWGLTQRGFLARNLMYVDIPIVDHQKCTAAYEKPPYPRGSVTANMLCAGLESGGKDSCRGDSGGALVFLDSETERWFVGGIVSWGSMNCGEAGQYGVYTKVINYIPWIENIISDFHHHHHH
Method in brief: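 Mature recombinant human MASP2, expressed in HEK293 and purified by Ni-NTA affinity, was reacted with a DABCYL FRET peptide substrate (added as a 60 μM solution) for 60-120 min at 32 C. Fluorescence increase was read at ex 340/em 490 nm; IC50 was derived from % inhibition versus compound concentration.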

rat MASP1 = rat MASP1 (Rattus norvegicus (Rat), UniProt Q8CHN8); experiment: Biochemical rat MASP1 assay (FRET substrate)
rat MASP1, sequence (Q8CHN8 other isoform, or with tags, fused parts or gaps): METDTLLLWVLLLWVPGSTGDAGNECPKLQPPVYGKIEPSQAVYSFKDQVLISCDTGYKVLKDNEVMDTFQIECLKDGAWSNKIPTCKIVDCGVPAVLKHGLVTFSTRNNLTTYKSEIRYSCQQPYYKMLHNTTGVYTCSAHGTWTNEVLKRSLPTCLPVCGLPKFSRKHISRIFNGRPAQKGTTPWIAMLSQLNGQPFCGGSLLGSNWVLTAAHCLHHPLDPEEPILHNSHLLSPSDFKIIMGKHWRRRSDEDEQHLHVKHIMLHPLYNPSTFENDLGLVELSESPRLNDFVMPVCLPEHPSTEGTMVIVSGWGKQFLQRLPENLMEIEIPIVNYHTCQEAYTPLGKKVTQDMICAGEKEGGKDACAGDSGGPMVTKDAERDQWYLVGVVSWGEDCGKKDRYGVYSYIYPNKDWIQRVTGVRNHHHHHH
Excerpt: A truncated cDNA sequence of rat MASP1encoding the fragment corresponding to the amino acids 302-704 with a C-terminal His Tag and N-terminal Ig-kappa secretion signal (SEQ ID No: 4) was subcloned into the mammalian expression vector pcDNA3.1 (Invitrogen).
(§1) The MASP1 or MASP2 expression vectors were transfected into the HEK293 (ATCC No. CRL-1573) cell line using Lipofectamine LTX® Reagent (Thermo-Fischer), as described by the manufacturer. The mature form of the recombinant rat MASP1 and MASP2 proteases were secreted into the culture medium. The MASP1 and MASP2 proteins were purified from the conditioned media by affinity chromatography on Ni-NTA Superflow resin (Qiagen) as described by the manufacturer.
4.2 Biochemical Rat MASP1 Assay.
Recombinant rat MASP1 enzyme produced in the HEK 293 cells was diluted in the reaction buffer (50 mM HEPES pH 8,0; 100 mM NaCl; 0,01% CHAPS; 0.5 mM Gluthathione) to the concentration of 4 nM and 25 μl was transferred into each single well of 384-well white microtiter plate (Greiner Bio One 781075). 1 μl of the inhibitor compound solution (dissolved in DMSO, at the corresponding concentration) or pure DMSO as a control was added to the same wells. The enzymatic reaction was initiated by addition of 25 μl of 40 μM solution of the FRET substrate Dabcyl-[…]-Glu(Edans)-NH2; (Dabcyl-4-((4-(dimethylamino)phenyl)azo)benzoic acid; Edans-5-[(2-Aminoethyl) amino]naphthalene-1-sulfonyl; custom synthesis by Jerini Peptide Technologies, Berlin) in the reaction buffer. The microtiter plate was incubated for 60-120 min at the temperature of 32 C. The increase of fluorescence intensity was measured in appropriate fluorescence plate reader (e.g. TECAN Ultra) using excitation wavelength of 340 nm and emission wavelength of 490 nm. IC50 values were calculated from percentage of inhibition of rat […] activity as a function of test compound concentration.

rat MASP2 = rat MASP2 (Rattus norvegicus (Rat), UniProt Q9JJS8); experiment: Biochemical rat MASP2 assay (FRET substrate)
rat MASP2, sequence (Q9JJS8 other isoform, or with tags, fused parts or gaps): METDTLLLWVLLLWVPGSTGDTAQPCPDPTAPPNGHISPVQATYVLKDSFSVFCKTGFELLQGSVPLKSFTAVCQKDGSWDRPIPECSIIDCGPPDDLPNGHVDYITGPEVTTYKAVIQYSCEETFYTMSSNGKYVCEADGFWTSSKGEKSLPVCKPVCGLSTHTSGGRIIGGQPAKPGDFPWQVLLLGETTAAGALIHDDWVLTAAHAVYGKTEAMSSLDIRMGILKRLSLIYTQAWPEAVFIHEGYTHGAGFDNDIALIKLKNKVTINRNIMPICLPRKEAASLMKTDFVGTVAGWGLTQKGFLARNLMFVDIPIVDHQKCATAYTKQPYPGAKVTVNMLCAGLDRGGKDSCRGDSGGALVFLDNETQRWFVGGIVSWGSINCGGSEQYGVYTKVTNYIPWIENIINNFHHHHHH
Excerpt: as §1, with “The mature form of the recombinant rat MASP1 and MASP2 proteases were secreted into the culture medium.” left out, “M[…]” for “MASP2 proteins”

[1] = test system: Human C3-DEPOSITION SERUM; experiment: C3 deposition assay, human serum on mannan-coated plates; format: biochemical; conditions: Average IC50, read-out: Human C3-[…] IC50
Method in brief: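 Plates coated overnight at 4° C with S. cerevisiae mannan (10 μg/mL, pH 9.6), blocked with 1% BSA in TBS 2 h at 37° C; washes in TBS/0.05% Tween 20/5 mM CaCl2. Antibodies diluted in wash buffer with 0.5% BSA. Colorimetric read-out at 450 nm.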

[2] = Average IC50, recombinant human MASP1, read-out: human MASP1 IC50
[3] = Average IC50, recombinant human MASP2, read-out: human MASP2 IC50
[4] = Average IC50, recombinant rat MASP1, read-out: rat MASP1 IC50
[5] = Average IC50, recombinant rat MASP2, read-out: rat MASP2 IC50

Structure (SMILES) | pIC50 (human MASP1; [2]) | pIC50 (human MASP2; [3]) | pIC50 (rat MASP1; [4]) | pIC50 (rat MASP2; [5]) | pIC50 [1] | pIC50 (human MASP1) | pIC50 (human MASP2) | pIC50 (rat MASP1) | pIC50 (rat MASP2)
CC[C@H](C)[C@@H]1NC(=O)CCCCCNC(=O)CC[C@@H](C(N)=O)NC(=O)[C@@H]2CCCN2C(=O)[C@H]([C@@H](C)CC)NC(=O)[C@H]2NC(=O)[C@H]([C@@H](C)CC)NC(=O)[C@@H]3C[C@@H]4CCCC[C@@H]4N3C(=O)[C@@H]3CCCN3C(=O)[C@H](CC(C)C)NC(=O)[C@H](CO)NC(=O)[C@H](CCCNC(=N)N)NC(=O)[C@H](CO)NC(=O)[C@H](CSSC2(C)C)NC1=O [Example 75] ([Ahx]ICSRSLP[Oic]I[Pen]IPE-NH2; disulfide 3-11; lactam N-14) | 8.14 | 7.85 | 7.57 | 8.85 | – | – | – | – | –
CC[C@H](C)[C@@H]1NC(=O)CNC(=O)CCCCCNC(=O)[C@H](CC(=O)O)NC(=O)[C@@H]2CCCN2C(=O)[C@H]([C@@H](C)CC)NC(=O)[C@H]2NC(=O)[C@H]([C@@H](C)CC)NC(=O)[C@@H]3CCCN3C(=O)[C@@H]3CCCN3C(=O)[C@H](CC(C)(C)C)NC(=O)[C@H](CO)NC(=O)[C@H](CCCNC(=N)N)NC(=O)[C@H](CO)NC(=O)[C@H](CSSC2(C)C)NC1=O [Example 28] (cyclo([Ahx]GICSRS[tBuAla]PPI[Pen]IPD); disulfide 4-12) | 7.72 | 7.54 | 7.10 | 7.80 | – | – | – | – | –
CC[C@H](C)[C@@H]1NC(=O)[C@H](C)NC(=O)CCCCCNC(=O)[C@H]([C@@H](C)CC)NC(=O)[C@H]2NC(=O)[C@H]([C@@H](C)CC)NC(=O)[C@@H]3CCCN3C(=O)[C@@H]3CCCN3C(=O)[C@H](CC(C)(C)C)NC(=O)[C@H](CO)NC(=O)[C@H](CCCNC(=N)N)NC(=O)[C@H](CO)NC(=O)[C@H](CSSC2(C)C)NC1=O [Example 72, N-{3-[(5aS,11S,14S,17S,20S,23R,26S,29S,39S,42R,45S,47aS)-26,39,45-tri[(2S)-butan-2-yl]-11-(2,2-dimethylpropyl)-14,20-bis(hydroxymethyl)-29,48,48-trimethyl-5,10,13,16,19,22,25,28,31,38,41,44,47-tridecaoxohexatetracontahydro-5H-23,42-(methanodithiomethano)dipyrrolo[2,1-1:2′,1′-o][1,4,7,10,13,16,19,22,25,28,31,34,37]tridecaazacyclotritetracontin-17-yl]propyl}guanidine] (cyclo(AICSRS[tBuAla]PPI[Pen]I[Ahx]); disulfide 3-11) | 8.20 | 7.32 | 7.07 | 7.85 | – | – | – | – | –
CC[C@H](C)[C@@H]1NC(=O)[C@@H]2CSSC[C@H](NC(=O)[C@H](Cc3ccc(O)cc3)NC(=O)CNC(=O)[C@H](CC(=O)O)NC(=O)[C@@H]3CCCN3C1=O)C(=O)N[C@@H](CO)C(=O)N[C@@H](CCCNC(=N)N)C(=O)N[C@@H](CO)C(=O)N[C@@H](Cc1ccc(O)cc1)C(=O)N1CCC[C@H]1C(=O)N1CCC[C@H]1C(=O)N[C@@H](C(C)C)C(=O)N2 [Ref. No 8, reference compound] (cyclo(CIPDGYCSRSYPPV); disulfide 1-7) | 5.09 | – | 6.00 | 6.90 | – | – | – | – | –
CC[C@H](C)[C@@H]1NC(=O)[C@@H]2CCCN2C(=O)[C@@H]2CCCN2C(=O)[C@H]([C@@H](C)CC)NC(=O)[C@@H]2CSSC[C@H](NC(=O)[C@H]([C@@H](C)O)NC(=O)[C@H](CCCCN)NC(=O)[C@H](CO)NC1=O)C(=O)N[C@@H](CCCNC(=N)N)C(=O)NCC(=O)N[C@@H](CC(=O)O)C(=O)N1CCC[C@H]1C(=O)N[C@@H](Cc1ccccc1)C(=O)N2 [Ref. No 12, reference compound] (cyclo(RGDPFCIPPISKTC); disulfide 6-14) | 5.32 | 5.30 | 6.00 | 6.00 | – | – | – | – | –
CC[C@H](C)[C@@H]1NC(=O)CNC(=O)[C@H](CC(=O)O)NC(=O)[C@@H]2CCCN2C(=O)[C@H]([C@@H](C)CC)NC(=O)[C@@H]2CSSC[C@H](NC1=O)C(=O)N[C@@H](CO)C(=O)N[C@@H](CCCNC(=N)N)C(=O)N[C@@H](CO)C(=O)N[C@@H](CC(C)C)C(=O)N1CCC[C@H]1C(=O)N1CCC[C@H]1C(=O)N[C@@H]([C@@H](C)CC)C(=O)N2 [Ref. No 7, reference compound] (cyclo(CIPDGICSRSLPPI); disulfide 1-7) | 6.84 | 6.05 | 6.00 | 6.63 | – | – | – | – | –
CC[C@H](C)[C@@H]1NC(=O)[C@@H]2CCCN2C(=O)[C@@H]2CCCN2C(=O)[C@H](CC(C)(C)C)NC(=O)[C@H](CO)NC(=O)[C@H](CCCNC(=N)N)NC(=O)[C@H](CO)NC(=O)[C@@H]2CSSC(C)(C)[C@H](NC1=O)C(=O)N[C@@H]([C@@H](C)CC)C(=O)N1CCC[C@H]1C(=O)NCCCCCC(=O)NC[C@H]1CC[C@@H](CC1)C(=O)N[C@@H]([C@@H](C)CC)C(=O)N2 [Example 59, N-{3-[(1R,4S,7S,13S,19S,22S,25S,28S,31R,34S,37S,40S,51S,57S)-4,34,57-tri[(2S)-butan-2-yl]-19-(2,2-dimethylpropyl)-22,28-bis(hydroxymethyl)-60,60-dimethyl-3,6,12,18,21,24,27,30,33,36,43,50,56,59-tetradecaoxo-61,62-dithia-2,5,11,17,20,23,26,29,32,35,42,49,55,58-tetradecaazahexacyclo[29.28.4.2^37,400.0^7,110.0^13,170.0^51,55]pentahexacontan-25-yl]propyl}guanidine] | 7.96 | 8.24 | 7.31 | – | 6.75 | – | – | – | –
CC[C@H](C)[C@@H]1NC(=O)c2ccc(cc2)CNC(=O)CCCCCNC(=O)[C@@H]2CCCN2C(=O)[C@H]([C@@H](C)CC)NC(=O)[C@H]2NC(=O)[C@H]([C@@H](C)CC)NC(=O)[C@@H]3CCCN3C(=O)[C@@H]3CCCN3C(=O)[C@H](CC(C)(C)C)NC(=O)[C@H](CO)NC(=O)[C@H](CCCNC(=N)N)NC(=O)[C@H](CO)NC(=O)[C@H](CSSC2(C)C)NC1=O [Example 68, N-{3-[(1R,4S,7S,13S,19S,22S,25S,28S,31R,34S,51S,57S)-4,34,57-tri[(2S)-butan-2-yl]-19-(2,2-dimethylpropyl)-22,28-bis(hydroxymethyl)-60,60-dimethyl-3,6,12,18,21,24,27,30,33,36,43,50,56,59-tetradecaoxo-61,62-dithia-2,5,11,17,20,23,26,29,32,35,42,49,55,58-tetradecaazahexacyclo[29.28.4.2^37,400.0^7,110.0^13,170.0^51,55]pentahexaconta-37,39,64-trien-25-yl]propyl}guanidine] | – | – | – | – | – | 8.21 | 8.59 | 7.51 | 8.53
